Tests used:
[1] = test system: patients suffering from Overactive Bladder syndrome; assay: Phase II clinical trial: pharmacodynamics in overactive bladder patients (urodynamic assessments, tolerability); details: 4 weeks
Experimental: A pharmacodynamic study of tarafenacin tartrate in patients suffering from Overactive Bladder syndrome was performed to obtain first efficacy and tolerability data in this population.
The study was randomised, double-blind, placebo and active-controlled. Patients received tarafenacin tartrate at the dose of 0.1 or 0.2 mg, tolterodine 4 mg or placebo o.d. during 4 weeks, just after a 2 week single-blind wash-out period in which all patients received placebo. Urodynamic assessments were performed at baseline and after 4 weeks administration.
It was planned to screen approximately 100 patients and randomize 77 patients, to obtain outcome data on 63 patients. Patients who entered the study were randomized into the four treatment groups during the double blind treatment period.
After a Screening visit and a 14 day washout single blind period (placebo run in), patients were randomized to one of the four treatment arms by a 2:2:2:1 randomization schedule. In a single blind period, only the patients were blinded. During the treatment period, each patient received tarafenacin tartrate 0.1 mg/tarafenacin tartrate 0.2 mg/tolterodine (ER) 4 mg/placebo. Identical capsules were used to maintain the study blind.
The end of study procedures were performed at the Day 28 visit (End of Treatment [EOT]). A study follow up was conducted at Day 35 either telephonically or the patient was called to the clinic (End of Study [EOS]).
The primary endpoint was the pharmacodynamic endpoints and they were assessed as the mean change from baseline to Day 28 in urodynamic, salivary flow, and accommodation near point pharmacodynamic assessments.

[2] = Equilibrium solubility of the D-tartrate salt in several solvents at 25° C.; format: physicochemical; details: for solubility: thermodynamic from solid, 25° C., measured as the free base
[3] = Salt screening of compound I with several acids (aspect of the salt); format: physicochemical; details: free base and acid in hot ethanol, cooled, solvent evaporated
Experimental: To select the most suitable salt of compound I and minimize the undesirable hygroscopic properties of the hydrochloride, several acids were tested. The free base of compound I was dissolved in hot ethanol, and then acid solution in hot ethanol was added. The mixture was then stirred and heated for 30 min. After cooling to room temperature, the solvent was removed by evaporation. […]

[4] = test system: healthy postmenopausal females; assay: Phase I clinical trial: tolerability and preliminary efficacy, voiding diary; format: in vivo, human
Experimental: A clinical trial was performed to evaluate the tolerability and preliminary efficacy of tarafenacin tartrate in healthy postmenopausal females.
Twelve subjects from 50 to 70 years old were randomized to receive tarafenacin tartrate 0.125 mg, 0.4 mg or placebo o.d. for 17 days. Subjects filled a diary to record time and volume of each void. A descriptive analysis was performed.

[5] = 0.1 mg o.d., change from baseline to Day 28

Structure (SMILES): O=C(O)C(O)C(O)C(=O)O.O=C(O[C@H]1CN2CCC1CC2)N(Cc1cc(F)c(F)c(F)c1)c1cccc(F)c1 [D-tartrate salt, D-tartrate salt of (R)-3-fluorophenyl-3,4,5-trifluorobenzylcarbamic acid 1-azabicyclo[2.2.2]oct-3-yl ester]
- incidence of treatment emergent adverse events ([1]; 0.1 mg o.d.): 25%
- increase in infused volume [1, 5]: 73 mL
- increase in volume at first desire to void [1, 5]: 60 mL
- increase in volume at strong desire to void [1, 5]: 71 mL
- dose-response relationship (in words) ([1]; 0.1 mg versus 0.2 mg o.d.): no dose-response relationship
- incidence of treatment emergent adverse events ([1]; 0.2 mg o.d.): 33%
- tolerability (in words) ([1]; OAB patients): well tolerated
- pharmacological activity (in words) ([1]; OAB patients, listed as Tarafenacin tartrate): good pharmacological activity
- pharmacological activity (in words) ([1]; OAB patients, listed as tarafenacin tartrate): higher pharmacological activity
- solubility ([2]; aqueous buffer, 0.1N sodium hydroxide): 90 µg/mL
- solubility in water (in words) ([2]; crystalline form, water): highly soluble in water
- solubility ([2]; organic solvent or mixture, Dichloromethane): 2200 µg/mL
- solubility ([2]; organic solvent or mixture, Ethanol): 10000 µg/mL
- solubility ([2]; organic solvent or mixture, Hexane): 300 µg/mL
- solubility ([2]; organic solvent or mixture, Isopropyl alcohol): 1500 µg/mL
- solubility ([2]; organic solvent or mixture, Methanol): 258000 µg/mL
- solubility ([2]; organic solvent or mixture, n-Octanol): 500 µg/mL
- solubility ([2]; simulated gastric fluid, 0.1 Hydrochloric acid): 367000 µg/mL
- solubility ([2]; Water): 251000 µg/mL
- Aspect of the salt ([3]; listed as D-Tartaric): White solid crystal precipitated in EtOH.
- Aspect of the salt ([3]; listed as salt obtained with D-tartaric acid): non-hygroscopic solid crystal
- effect on the volume of urine per void (in words) ([4]; 0.125 mg and 0.4 mg o.d. for 17 days): A dose-relationship was observed
- number of voids per day ([4]; 0.125 mg group, day 0): 7.6 times per day
- number of voids per day ([4]; 0.125 mg group, day 17): 6.8 times per day
- volume per void ([4]; 0.125 mg o.d., from day 10 until day 17 (steady state)): 450 to 550 mL
- number of voids per day ([4]; 0.4 mg group, day 0): 8 times per day
- number of voids per day ([4]; 0.4 mg group, day 17): 6.4 times per day
- mean volumes per void ([4]; 0.4 mg o.d., from day 2 until the end of the study): 550 to 650 mL

Source: patent US8871787B2, “Stable crystalline salt of (R)-3-fluorophenyl-3,4,5-trifluorobenzylcarbamic acid 1-azabicyclo [2.2.2]oct-3-yl ester” (Laboratorios Salvat, S.A., priority 2007, dated 2014)
